Test results as given in patent US8569289B2, “Fumarate salt of 4-bromophenyl 1,4-diazabicyclo[3.2.2]nonane-4-carboxylate, crystalline forms thereof, preparation thereof and therapeutic use thereof” (Sanofi, priority 2008, dated 2013).

What was measured:
[1] = assay type: physicochemical
Text: In contrast, the fumarate salt of 4-bromophenyl 1,4-diazabicyclo[3.2.2]nonane-4-carboxylate crystallizes in two nonhygroscopic polymorphic forms (forms I and II). […] This property of the two polymorphic forms of the fumarate salt of 4-bromophenyl 1,4-diazabicyclo[3.2.2]nonane-4-carboxylate is an advantage in comparison with the hydrochloride salt of 4-bromophenyl 1,4-diazabicyclo[3.2.2]nonane-4-carboxylate.

[2] = Instantaneous solubility tests; assay type: physicochemical
Procedure: The instantaneous solubilities of the base and of the fumarate salt of the compound of formula (I) were determined in the following media: • water; • buffer pH 1.2: 0.01M KH2PO4, pH adjusted with orthophosphoric acid; • buffer pH 7.2: 0.2M KH2PO4, pH adjusted with KOH; • buffer pH 9.0: 0.04M Na2B4O7.10H2O, pH adjusted with boric acid; • dimethyl sulfoxide (DMSO).
Determination of the instantaneous solubilities: successive volumes of the medium are added to the test specimen until the compound has dissolved. Stirring is carried out with a vortex mixer at ambient temperature.
Information on the corresponding classification according to the European Pharmacopoeia is also given therein.

[3] = Thermal stability in the solid state - quantitative determination of nondecomposed product and impurities by HPLC; assay type: physicochemical; conditions: for Sum % imp. quantified (% surf.): HPLC UV 220 nm; for Non-decomposed base / product (%): HPLC, % (w/w) of nondecomposed base
Procedure: (§1) The base and the fumarate salt of the compound of formula (I) are analyzed after 1, 7 and 14 days of storage at: • 80° C.; • 80° C. and under 80% relative humidity (RH). Appearance
Quantitative Determination of the Nondecomposed Product and Percentage of Impurities
Chromatographic Conditions
Column: Inertsil ODS 3 150×4.6 mm, 5 μm, maintained at 25° C.
Buffer pH 4.5: 0.01M KH2PO4, 0.5 g/l sodium heptanesulfonate pH adjusted to 4.5 with 1M KOH
Phase A: 90 V buffer pH 4.5
• 10 V acetonitrile Phase B: 20 V buffer pH 4.5 • 80 V acetonitrile Gradient: from 100% of phase A to 80% of phase B in 40 min Flow rate: 1.0 ml/min Detection: UV, λ=220 nm (optical path: 1 cm) Solutions injected: 0.2 mg (base or salt)/ml solutions in a mixture of 50 volumes of water and 50 volumes of acetonitrile. Comment: for the quantitative determinations, the results obtained are expressed in % (w/w) of nondecomposed base (by calibrating with nondecomposed base or salt controls stored at ambient temperature).
Comment: the sum of the impurities quantified may be less after storing at 80° C. under 80% relative humidity because impurities may decompose to give products which cannot be detected by UV or which are not separated by the analytical conditions.

[4] = Test of thermal stability in the solid state - appearance; assay type: physicochemical
Procedure: Test of thermal stability in the solid state
as §1
In contrast, the appearance of the fumarate salt of the compound of formula (I) remains unchanged.

[5] = buffer pH 1.2, ambient temperature
[6] = buffer pH 7.2, ambient temperature
[7] = buffer pH 9.0, ambient temperature
[8] = solid state, 80° C./80% RH, 7 d
[9] = solid state, 80° C./80% RH, 14 d
[10] = solid state, 80° C./80% RH, 1 d

SMILES	Solubility classification according to the European Pharmacopoeia ([2]; DMSO)	Instantaneous solubility ([2]; DMSO, ambient temperature)	Solubility classification according to the European Pharmacopoeia ([2]; Water)	Instantaneous solubility ([2]; Water, ambient temperature)	Solubility classification according to the European Pharmacopoeia ([2]; buffer pH 1.2)	Instantaneous solubility [2, 5]	Solubility classification according to the European Pharmacopoeia ([2]; buffer pH 7.2)	Instantaneous solubility [2, 6]	Solubility classification according to the European Pharmacopoeia ([2]; buffer pH 9.0)	Instantaneous solubility [2, 7]	Sum % imp. quantified (% surf.) ([3]; Initial)	Sum % imp. quantified (% surf.) ([3]; solid state, 80° C., 7 d)	Non-decomposed base / product (%) ([3]; solid state, 80° C., 7 d)	Sum % imp. quantified (% surf.) ([3]; solid state, 80° C., 14 d)	Non-decomposed base / product (%) ([3]; solid state, 80° C., 14 d)	Sum % imp. quantified (% surf.) [3, 8]	Non-decomposed base / product (%) [3, 8]	Sum % imp. quantified (% surf.) [3, 9]	Non-decomposed base / product (%) [3, 9]	Appearance ([4]; Initial appearance)	also measured
O=C(O)/C=C/C(=O)O.O=C(Oc1ccc(Br)cc1)N1CCN2CCC1CC2 [form I, fumarate salt of 4-bromophenyl 1,4-diazabicyclo[3.2.2]nonane-4-carboxylate]																					Hygroscopicity of the polymorphic form [1]: nonhygroscopic; Impact of water on the crystalline form ([1]; water in the vapor or liquid form): no impact on the crystalline form
O=C(O)/C=C/C(=O)O.O=C(Oc1ccc(Br)cc1)N1CCN2CCC1CC2 [Fumarate, fumarate salt of 4-bromophenyl 1,4-diazabicyclo[3.2.2]nonane-4-carboxylate]	Freely soluble	~140 g of product/l	Sparingly soluble	~27 g of product/l	Sparingly soluble	~16 g of product/l	Soluble	~75 g of product/l	Soluble	~68 g of product/l	0.32 % surf.	0.60 % surf.	99.6%	0.53 % surf.	100%	0.74 % surf.	99.7%	0.83 % surf.	100%	White powder	Appearance ([4]; solid state, 80° C., 1 d): unchanged; Appearance ([4]; solid state, 80° C., 7 d): unchanged; Appearance ([4]; solid state, 80° C., 14 d): unchanged; Appearance [4, 10]: unchanged; Appearance [4, 8]: unchanged; Appearance [4, 9]: unchanged
O=C(Oc1ccc(Br)cc1)N1CCN2CCC1CC2 [Base, 4-Bromophenyl 1,4-diazabicyclo[3.2.2]nonane-4-carboxylate]	Soluble	~75 g of product/l	Slightly soluble	<2 g of product/l	Freely soluble	140 g of product/l	Slightly soluble	<2 g of product/l	Slightly soluble	<2 g of product/l	4.02 % surf.	3.57 % surf.	100%	3.14 % surf.	99.9%	4.37 % surf.	98.7%	4.53 % surf.	98.3%	Virtually white	Appearance ([4]; solid state, 80° C., 1 d): Pale yellow; Appearance ([4]; solid state, 80° C., 7 d): Pale yellow; Appearance ([4]; solid state, 80° C., 14 d): Pale yellow; Appearance [4, 10]: Yellow-brown; Appearance [4, 8]: Brown; Appearance [4, 9]: Brown
Cl.O=C(Oc1ccc(Br)cc1)N1CCN2CCC1CC2 [hydrochloride, hydrochloride salt of 4-bromophenyl 1,4-diazabicyclo[3.2.2]nonane-4-carboxylate]																					Forms shown by the water sorption/desorption isotherm [1]: present in a hemihydrate form and two anhydrous forms; Stability of the water stoichiometry ([1]; under the effect of temperature or when flushing with nitrogen): has a tendency to lose its water stoichiometry
